Measurements taken from US20210251983A1, “METHODS OF TREATMENT WITH BUPRENORPHINE” (BioDelivery Sciences International, Inc., priority 2020, published 2021).
Entries after “also recorded” stand apart in the source; their conditions may differ.

Tests used:
[1] = Pharmacokinetic assessment - abuse quotient (plasma Cmax, Tmax, AUC0-last, AQ); conditions: for AUC(0-t) / Cmax / Tmax: both, human, plasma, oral
pupil diameter = assay: Pupillometry during VRH testing; format: in vivo, human; conditions: time after dosing
[2] = Treatment-emergent adverse events
respiratory drive = assay: Ventilatory response to hypercapnia (VRH) test of respiratory drive, phase I placebo-controlled crossover trial

COc1ccc2c3c1O[C@H]1C(=O)CC[C@@]4(O)[C@@H](C2)N(C)CC[C@]314.Cl [IR Oxycodone, oxycodone hydrochloride]
Cmax dependence on dose ([1]; BBF 300-900 μg, IR oxycodone 30, 60 mg): increased proportionally with dose | AUC(0-t) ([1]; 30 mg): 216 ng·h/mL | Cmax ([1]; 30 mg): 65.8 ng/mL | Tmax ([1]; 30 mg): 1.2 h | AUC(0-t) ([1]; 60 mg): 435 ng·h/mL | Cmax ([1]; 60 mg): 132 ng/mL | Tmax ([1]; 60 mg): 1.2 h | initial onset of statistically significant miosis (relative to placebo) (pupil diameter; oxycodone 30 mg): 0.5 h | initial onset of statistically significant miosis (relative to placebo) (pupil diameter; oxycodone 60 mg): 0.5 h | treatment-emergent adverse events ([2]; all doses): produced some adverse events | treatment-emergent adverse events ([2]; oxycodone 60 mg): highest percentage of adverse events in all categories | effect on respiratory drive (Emax) relative to placebo (respiratory drive; across all doses tested (BBF 300-900 μg; oxycodone 30, 60 mg), hydrochloride): dose-dependent decrease in respiratory drive; also recorded: decreased respiratory drive in a dose-dependent fashion | least square mean difference in Emax (maximum minute ventilation) versus placebo (respiratory drive; oral oxycodone 30 mg, P=0.668): −828.5 | least square mean difference in Emax (maximum minute ventilation) versus placebo (respiratory drive; oral oxycodone 60 mg, P=0.008): −5188.6 | minute ventilation relative to placebo (respiratory drive; oxycodone 30 mg): significant (P<0.05) decrease at one hour post-dose | Peak Expiratory Flow Rate (PEFR) relative to placebo (respiratory drive; oxycodone 30 mg, 1 hour post-dose): significant (P<0.05) decrease in PEFR at 1 hour post-dose | minute ventilation relative to placebo (respiratory drive; oxycodone 60 mg): significant (P<0.05) decreases at 1 hour, 2 hour, and 4 hours post-dose | Peak Expiratory Flow Rate (PEFR) relative to placebo (respiratory drive; oxycodone 60 mg, 30 minutes post-dose): significant (P<0.05) decrease at 30 minutes | Peak Expiratory Flow Rate (PEFR) relative to placebo (respiratory drive; oxycodone 60 mg, 1 hour post-dose): significant (P<0.05) decrease in PEFR at 1 hour post-dose | oxygen saturation level, one subject (adverse event) (respiratory drive; oxycodone 60 mg, approximately 1.5 hours after dosing): 86%
